Tests used:
HAS2 [1] = details: Korean Registered Patent No. 10-1525298; cited from earlier work
HAS2 [2] = test: HAS2 expression in HaCaT cells by Western blot (moisturizing effect); format: cell-based, human; details: for HAS2 expression compared to L-AHG: same concentration (100 μg/mL, FIG. 7)
Source text: Hyaluronan (HA) is a glycosaminoglycan composed of D-glucuronic acid and N-acetyl-D-glucosamine. Due to its ability to retain large amounts of water, HA plays an important role in regulating hydration and osmotic pressure. […] is synthesized in cell membranes by HAS1, HAS2, and HAS3, and HAS2 in particular appears in human normal tissues. […] Therefore, increasing HAS2 expression may be a great strategy to maintain skin homeostasis. To determine the AB induction time and AB concentration for HAS2 expression, Western blot analysis was performed. Cells used for the analysis were HaCaT cells, which were cultured at 37° C. in a 5% CO2 atmosphere using DMEM with 10% FBS and penicillin/streptomycin. Cells (1×10^5) were cultured in 6-cm dishes for 24 hours and then starved in serum-free medium for another 24 hours to remove the FBS effect on the activation of the kinase. Then, AB was treated at a certain time and concentration. Cells were lysed with a lysis buffer [20 mM Tris-HCl (pH 7.5), 150 mM NaCl, 1 mM Na2EDTA, 1 mM EGTA, 1% Triton X-100, 2.5 mM sodium pyrophosphate, 1 mM β-glycerophosphate, 1 mM Na3VO4, […] leupeptin, 1 mM phenylmethylsulfonyl fluoride (PMSF), and a protease inhibitor cocktail tablet]. The protein concentration was measured using a dye-conjugated protein assay kit (Bio-Rad Laboratories Inc.) according to the manufacturer's instructions. Dissolved proteins (20-40 μg) were subjected to 10% SDS-PAGE and transferred to a polyvinylidene fluoride (PVDF) membrane by electrophoresis (Millipore Corp., Bedford, MA, USA). After blotting, the membrane was blocked with 5% skim milk for 2 hours and incubated overnight at 4° C. with a primary antibody […]. Subsequently, the membrane was incubated with a secondary antibody (goat anti-rabbit IgG HRP-conjugated secondary antibody), and the protein bound to the antibody was detected using a chemiluminescence detection kit (Amersham Pharmacia Biotech, Piscataway, NJ). Representative values of two independent experiments were used as data. […] The moisturizing activity of AB was confirmed from the result.

[3] = pH stability (degree of denaturation over time at 25° C.); format: physicochemical; details: for Stability over time at pH 3: pH 3 (20 mM citrate); for Stability over time at pH 7: pH 7 (20 mM Tris-HCl)
Protocol: The pH stability of AB was assessed (C of FIG. 1). For a pH stability experiment, the degree of denaturation in each sample (AB) over time was measured at 25° C. under conditions of pH 3 (20 mM citrate), pH 7 (20 mM Tris-HCl), and pH 9 (20 mM Tris-HCl). […] Since the buffer and AB peaks were not separated at pH 3 using HPLC, AB was quantified through GC/MS analysis. The derivatization process for GC/MS analysis is as follows. After drying a purified sample with a speed vac, 10 μL of 40 mg/mL O-methylhydroxylamine hydrochloride in pyridine was added and reacted at 30° ° C. and 200 rpm for 90 minutes. Then, 45 μL of N-methyl-N-(trimethylsilyl)trifluoroacetamide was added and reacted at 37° C. and 200 rpm for 30 minutes. Instrument conditions for GC/MS analysis are as follows. A DB5-MS capillary column was used in the analysis, and the GC column temperature condition was maintained at 50° C. for 1 minute and then raised to 280° C. and maintained for 5 minutes. 1 μL of sample was analyzed in a splitless mode. Each concentration of […] at pH 7 and pH 9 was analyzed using HPLC. HPX-87H was used as a column, and the sample was analyzed at a column temperature of 65° C. and a flow rate of 0.5 mL/min. 0.005 M sulfuric acid was used as a mobile phase.

HaCaT cells = test: MTT cytotoxicity test in HaCaT keratinocytes; format: cell-based, human; details: for Cytotoxicity: HaCaT cells, AB below 100 µg/mL
Protocol: Cytotoxicity tests were performed using the MTT(3-4,5-dimethylthiazol-2yl)-2,5-diphenyl-2H-tetrazolium bromide) assay. HaCaT cells were cultured in an animal cell incubator at 37° C. and 5% CO2 in a laboratory using Dulbecco's Modified Eagle Medium (DMEM) containing 10% (v/v) FBS, 100 U/mL penicillin, and 100 µg/mL streptomycin as antibiotics. The produced AB was dissolved in DMSO and added to the culture medium at […], and cells were cultured in the medium for 24 hours. The cells were treated with an MTT solution (5 mg/mL) and cultured for another 4 hours, and then an amount of the produced formazan as a blue crystal, was measured by measuring absorbance at 595 nm using an ELISA reader. Toxicity to cells was expressed as a percentage of the average absorbance value of each control group. To investigate the cytotoxicity of AB in HaCaT keratinocytes, when AB was treated at a concentration of […], the degree of change in cell proliferation was calculated compared to control groups treated with only DMSO. The results of Example 1 are shown in A of FIG. 1.
B of FIG. 1 illustrates the presence or absence of a cytotoxic effect when HaCaT keratinocytes are treated with AB according to an example of the present invention. Cell viability was measured to be 100% or more at 100 µg/mL AB.

[4] = Temperature stability (denaturation/decomposition over time); format: physicochemical; details: for Time for which stability was maintained at 4° C. / Time for which stability was maintained at 30° C.: HPLC
Protocol: The temperature stability of agarobiose was tested. The experimental method measured the denaturation/decomposition degrees of AB and ethyl-agarobioside over time at 4° C., 30° C., and 45° C. […] AB and ethyl-agarobioside were quantified using HPLC.

Structure (SMILES)	Moisturizing activity in HaCaT cells (previous study) (HAS2 [1])	HAS2 expression compared to L-AHG (HAS2 [2])	Moisturizing activity (HAS2 expression level) (HAS2 [2]; same manner as Example 1)	Stability over time at pH 3 [3]	Stability over time at pH 7 [3]	Stability over time at pH 9 ([3]; pH 9 (20 mM Tris-HCl))	Cytotoxicity (HaCaT cells)	Stability at 45° C. [4]	Time for which stability was maintained at 4° C. [4]	Time for which stability was maintained at 30° C. [4]	Conversion product at 45° C. ([4]; 45° C., HPLC analysis of reactant components)	HAS2 expression, concentration dependence (HAS2 [2]; Western blot)	HAS2 expression (HAS2 [2]; Western blot, 3 hours after treatment)	Time to complete denaturation / decomposition at pH 9 ([3]; pH 9 (20 mM Tris-HCl))	Cell viability (HaCaT cells; HaCaT keratinocytes, 24 hours, 100 µg/mL AB, vs DMSO control)
O=C[C@@H](O)[C@@H]1OC[C@H](O)[C@H]1O [L-AHG, 3,6-anhydro-L-galactose]	has moisturizing activity	–	–	–	–	–	–	–	–	–	–	–	–	–	–
CCOC1O[C@H]2CO[C@H]([C@@H]2O[C@@H]2O[C@H](CO)[C@H](O)[C@H](O)[C@H]2O)[C@@H]1O (stereo partly shown) [ethyl-agarobioside]	–	greatly increased	exhibits moisturizing activity	maintained	maintained	maintained	without cytotoxicity	less stable than AB after 6 weeks	15 weeks	15 weeks	converted to AB	–	–	–	–
OC[C@H]1O[C@@H](O[C@H]2[C@H]3OC[C@@H]2OC(O)[C@H]3O)[C@H](O)[C@@H](O)[C@H]1O (mixture of isomers) [AB, agarobiose]	–	greatly increased	–	stable	stable	–	no cytotoxicity	stability slowly decreased	15 weeks	15 weeks	–	increased HAS2 expression in a concentration-dependent manner	increased HAS2 expression	≤ 6 weeks	≥ 100%

From US20240279263A1, “NOVEL SEA ALGAE-DERIVED ALKYL-AGARBIOSIDE, PREPARATION METHOD THEREFOR, OR USE THEREOF” (KOREA UNIVERSITY RESEARCH AND BUSINESS FOUNDATION, priority 2021, published 2024)
